Values joined by “and” are separate entries in the source; they are usually repeats but may differ in a detail not shown here. Equal values may be shown once.
Assays:
Body weights, Study 2 = assay type: in vivo, mouse; conditions: Group B Oxaliplatin/Vehicle, individual mice
Source text: Body Weights: The mice were weighed daily starting 1 day prior to treatment through day 9.

[1] = tested on: mouse oxaliplatin model of chemotherapy-induced neuropathy; assay: Thermal hypersensitivity, cold plate test, Study 2; conditions: Group B Oxaliplatin/Vehicle; for Latency to withdrawal behaviour in the cold plate test (15° C.): N 12
Protocol: (§1) Thermal hypersensitivity: Thermal hypersensitivity was assessed using a dynamic cold plate (Bioseb, France) set at a fixed temperature of 15° C. This method allows analysis of more integrated behaviors rather than reflex behaviors, e.g., the tail immersion test. In animal studies, thermal sensitivity is mostly evaluated based on nociceptive reaction latencies in response to a given thermal aversive stimulus. In this classical test, the temperature of the plate is fixed and remains constant: the latency to the first paw licking, jumps or withdrawal is taken as an index of nociceptive threshold. […] The results of the study are shown in Table 5 (raw data) below, Table 6 (summary) below, FIG. 4, and FIG. 5.
(§2) 60 adult male C57/BL6 mice (Charles River), 6-7 weeks of age, were housed in groups of 5 in Perspex cages, in a controlled environment of constant temperature and humidity (temperature: 21±1° C., light: dark cycle of 12:12 hours), with food and water available ad libitum. Animals were allowed to recover from transportation for at least one week before commencing experiments.
Thermal hypersensitivity: The same apparatus and protocol were used as for Study 1. The results of Study 2 are shown in Table 11 (raw data), Table 12 (summary), FIG. 8, and FIG. 9.

PC-12 cells = assay: Viable cell counts, PC-12 cells; assay type: cell-based, rat; conditions: for cell viability (in words): 2 μM oxaliplatin alone
Protocol: The neurostimulatory, neuroprotective, and neurotrophic qualities of the SapC-phospholipid formulation (BXQ-350) were tested in vitro in two cell lines, i.e., PC-12 cells (derived from a pheochromocytoma of a rat adrenal medulla) and NS20Y cells (cholinergic cell line derived from a mouse neuroblastoma).
PC-12 cells (ATCC, catalogue number CRL-1721) and NS20Y cells (Millipore Sigma, catalogue number 08062517) were seeded overnight in 24-well plates containing 1×10^4 cells per well in 1 mL of DMEM (Gibco, catalog number 11965-092) supplemented with 10% FBS and PenStrep. Each agent tested was brought to solution, at its appropriate concentrations, in a dosing media consisting of high glucose, no glutamine, no calcium DMEM (Gibco, catalog number 21068-028) supplemented with 4 mM glutamine, 1 mM calcium gluconate and PenStrep. […] The seeding medium was completely removed from the cells before the dosing medium containing the testing agents was added.
PC-12 cells (ATCC, catalogue number CRL-1721) and NS20Y cells (Millipore Sigma, catalogue number 08062517) were seeded overnight in 24-well plates containing 1×10^4 cells per well in 1 mL of DMEM (Gibco, catalog number 11965-092) supplemented with 10% FBS and PenStrep. Each agent tested was brought to solution, at its appropriate concentrations, in a dosing media consisting of high glucose, no glutamine, no calcium DMEM (Gibco, catalog number 21068-028) supplemented with 4 mM glutamine, 1 mM calcium gluconate and PenStrep. BXQ-350 was tested at concentrations between 5 nM and 1 μM concentration of SapC. The seeding medium was completely removed from the cells before the dosing medium containing the testing agents was added.
The viability of the cytotoxic drug+BXQ-350 combination groups was about 50% of the BXQ-350 alone group.

[2] = tested on: mouse oxaliplatin model of chemotherapy-induced neuropathy; assay: Static mechanical (tactile) allodynia, von Frey filaments, Study 1; assay type: in vivo
Protocol: as §2
Static mechanical tactile allodynia: Static mechanical (tactile) allodynia was assessed by measurement of withdrawal threshold using calibrated (force; g) von-Frey monofilaments (Touch-Test Sensory Evaluator; Scientific Marketing Associates) applied to the plantar surface of the left hind-paw. The animals were placed in individual Perspex boxes on a raised metal mesh for 30-40 min before the test to habituate. A series of graduated von Frey hairs (0.07, 0.16, 0.4, 0.6 and 1 g) were applied in sequence with a protocol of 1 sec on 1 sec off repeated 10 times. Each hair was applied perpendicularly to the center of the ventral surface of the paw until it bent slightly. The force applied to the hind-paw of the animal to induce 5 responses out of 10 trials was recorded as paw withdrawal threshold (PWT) 50%.
(§3) Warm vials of BQX-350 were brought to room temperature and reconstituted with 4 mL water for injection via syringe. The vials were gently agitated and/or vortexed for 15-20 sec and allowed to sit at room temp for 5 mins. The rehydrated solution contained 2.2 mg/mL SapC (8.8 mg SapC per vial). About […] of the formulation was injected to achieve a target dose of 20 mg/kg in each mouse. Pregabalin was reconstituted in water and injected to achieve a target dose of 30 mg/kg in each mouse.
(§4) A two-way repeated measures ANOVA with ‘treatment’ as a between subjects effect, and ‘day’ as a within subjects effect was used (using GraphPad Prism version 9.0 for Windows, GraphPad Software, San Diego California USA), followed by Dunnett's multi comparisons test. Data is presented as mean±SEM.

[3] = tested on: mouse oxaliplatin model of chemotherapy-induced neuropathy; assay: Thermal hypersensitivity, cold plate test 15° C., Study 1; assay type: in vivo
Protocol: as §2, §1, §3, §4

[4] = oxaliplatin 10 mg/kg IP day 0 (+vehicle, BXQ-350 20 mg/kg IP or pregabalin 30 mg/kg IP), group mean
[5] = oxaliplatin treated animals, day 3 to day 9, BXQ-350 20 mg/kg, pregabalin 30 mg/kg 2 hours before assessment
[6] = cold plate 15° C., oxaliplatin 10 mg/kg IP day 0 (+vehicle, BXQ-350 20 mg/kg IP or pregabalin 30 mg/kg IP), group mean

## O=C([O-])C(=O)[O-].[NH-][C@@H]1CCCC[C@H]1[NH-].[Pt+4] (relative stereo) [Oxaliplatin, cis-[(1R,2R)-1,2-cyclohexanediamine-N,N′][oxalato(2)-O,O′] platinum]
Body weights, Study 2; D 0
  Individual body weights: 26.0 g (2×) and 22.4 g and 23.6 g (2×) and 23.1 g and 24.5 g (2×) and 23.2 g and 24.6 g and 21.9 g and 26.1 g
Body weights, Study 2; D 1
  Individual body weights: 24.9 g (2×) and 21.1 g and 23.5 g (2×) and 22.5 g and 23.9 g and 23.7 g and 22.9 g and 23.0 g and 20.8 g and 25.4. g
Body weights, Study 2; D 2
  Individual body weights: 24.8 g and 21.3 g and 23.2 g (2×) and 22.3 g and 24.6 g and 23.8 g (2×) and 23.0 g and 23.6 g and 21.0 g and 25.0 g
Body weights, Study 2; D 3
  Individual body weights: 24.1 g and 22.4 g (2×) and 22.7 g and 22.2 g (2×) and 23.7 g and 23.0 g (2×) and 22.1 g and 20.6 g and 24.4 g
Body weights, Study 2; D 4
  Individual body weights: 25.0 g (2×) and 23.5 g (3×) and 23.1 g (2×) and 22.6 g and 23.7 g and 22.7 g and 21.3 g and 24.8 g
Body weights, Study 2; D 5
  Individual body weights: 25.2 g and 23.8 g and 22.8 g (2×)
Body weights, Study 2; D −1
  Individual body weights: 25.3 g and 21.8 g and 23.6 g and 22.9 g (3×) and 25.5 g and 23.8 g and 24.1 g and 24.3 g and 21.6 g and 26.1 g
Body weights, Study 2; D −2
  Individual body weights: 25.4 g (2×) and 21.9 g and 23.8 g (2×) and 23.3 g and 23.9 g and 23.0 g and 23.5 g and 24.1 g and 21.8 g and 25.2 g
Body weights, Study 2; D −3
  Individual body weights: 26.0 g (2×) and 22.0 g (2×) and 24.0 g (4×) and 23.0 g (2×) and 25.0 g (2×)
[1]; oxaliplatin 10 mg/kg i.p. day 0, D 3, individual mice
  Individual latency to displaying withdrawal behaviour in the cold plate test: 18.8 s and 69.3 s and 84.0 s and 28.0 s and 19.9 s and 34.2 s and 36.8 s and 23.9 s and 77.7 s and 54.5 s
[1]; oxaliplatin 10 mg/kg i.p. day 0, D3, mean (SEM)
  Latency to withdrawal behaviour in the cold plate test (15° C.): 42.933 + s
[1]; oxaliplatin 10 mg/kg i.p. day 0, D 5, individual mice
  Individual latency to displaying withdrawal behaviour in the cold plate test: 29.8 s and 12.7 s and 28.7 s and 18.6 s and 13.1 s and 25.5 s and 33.8 s and 17.4 s and 47.1 s and 16.4 s and 11.8 s and 43.8 s
[1]; oxaliplatin 10 mg/kg i.p. day 0, D5, mean (SEM)
  Latency to withdrawal behaviour in the cold plate test (15° C.): 24.888 ? s
[1]; oxaliplatin 10 mg/kg i.p. day 0, D 7, individual mice
  Individual latency to displaying withdrawal behaviour in the cold plate test: 13.7 s and 22.3 s and 7.4 s and 28.4 s and 4.8 s and 23.9 s and 26.1 s and 29.6 s and 23.2 s and 26.3 s and 12.7 s and 44.2 s
[1]; oxaliplatin 10 mg/kg i.p. day 0, D7, mean (SEM)
  Latency to withdrawal behaviour in the cold plate test (15° C.): 21.883 + s
[1]; oxaliplatin 10 mg/kg i.p. day 0, D 9, individual mice
  Individual latency to displaying withdrawal behaviour in the cold plate test: 25.2 s and 23.9 s and 39.0 s and 17.2 s and 18.4 s and 23.0 s and 35.0 s and 23.8 s and 12.7 s and 30.6 s and 6.4 s and 33.2 s
[1]; oxaliplatin 10 mg/kg i.p. day 0, D9, mean (SEM)
  Latency to withdrawal behaviour in the cold plate test (15° C.): 24.033 + s
[1]; oxaliplatin 10 mg/kg i.p. day 0, D −1, individual mice
  Individual latency to displaying withdrawal behaviour in the cold plate test: 26.1 s and 32.9 s and 45.8 s and 42.4 s and 24.4 s and 53.7 s and 64.3 s and 91.7 s and 31.2 s and 45.0 s and 37.0 s and 33.4 s
[1]; oxaliplatin 10 mg/kg i.p. day 0, D −1, mean (SEM)
  Latency to withdrawal behaviour in the cold plate test (15° C.): 43.992 + s
[1]; oxaliplatin 10 mg/kg i.p. day 0, D −2, individual mice
  Individual latency to displaying withdrawal behaviour in the cold plate test: 36.8 s and 63.0 s and 47.4 s and 35.8 s and 31.9 s and 42.2 s and 61.4 s and 63.3 s and 55.6 s and 41.5 s and 29.0 s and 36.7 s
[1]; oxaliplatin 10 mg/kg i.p. day 0, D −2, mean (SEM)
  Latency to withdrawal behaviour in the cold plate test (15° C.): 45.383 + s
[1]; oxaliplatin 10 mg/kg i.p. day 0, D −3, individual mice
  Individual latency to displaying withdrawal behaviour in the cold plate test: 29.9 s and 35.1 s and 40.1 s and 49.9 s and 24.7 s and 30.0 s and 72.0 s and 50.6 s and 67.4 s and 55.6 s
[1]; oxaliplatin 10 mg/kg i.p. day 0, D −3, mean (SEM)
  Latency to withdrawal behaviour in the cold plate test (15° C.): 44.183 + s
PC-12 cells
  cell viability (in words): negligible cell viability
PC-12 cells; 2 μM oxaliplatin alone (FIG. 12)
  cell viability: less than 1%
PC-12 cells; listed as oxaliplatin
  cell viability (in words): severely reduces cell viability
[2]; [4]
  PWT 50% (g) Baseline: 0.780 g
  PWT 50% (g) D3: 0.423 g
  PWT 50% (g) D5: 0.357 g
  PWT 50% (g) D7: 0.369 g
  PWT 50% (g) D9: 0.373 g
[2]; [5]
  mechanical allodynia (in words): induced consistent and persistent mechanical allodynic response
[3]; [6]
  Latency (s) Baseline: 54.717 s
  Latency (s) D 3: 25.583 s
  Latency (s) D 5: 28.567 s
  Latency (s) D 7: 32.475 s
  Latency (s) D 9: 22.050 s
[3]; oxaliplatin 10 mg/kg IP day 0 (+vehicle, BXQ-350 20 mg/kg IP or pregabalin 30 mg/kg IP), Baseline, individual mice
  Individual latency to displaying withdrawal behaviour in the cold plate test: 45.4 s and 59.0 s and 48.3 s and 65.5 s and 80.0 s and 54.3 s and 46.2 s and 46.7 s and 46.5 s and 58.8 s and 48.6 s and 57.6 s
[3]; oxaliplatin 10 mg/kg IP day 0 (+vehicle, BXQ-350 20 mg/kg IP or pregabalin 30 mg/kg IP), Day 3, individual mice
  Individual latency to displaying withdrawal behaviour in the cold plate test: 22.9 s and 19.5 s and 25.9 s and 24.2 s and 30.2 s and 15.0 s and 31.3 s and 34.1 s and 22.0 s and 24.3 s and 35.5 s and 22.1 s
[3]; oxaliplatin 10 mg/kg IP day 0 (+vehicle, BXQ-350 20 mg/kg IP or pregabalin 30 mg/kg IP), Day 5, individual mice
  Individual latency to displaying withdrawal behaviour in the cold plate test: 30.3 s and 27.7 s and 39.8 s and 17.3 s and 31.1 s and 38.3 s and 24.5 s and 18.5 s and 16.0 s and 30.1 s and 33.9 s
[3]; oxaliplatin 10 mg/kg IP day 0 (+vehicle, BXQ-350 20 mg/kg IP or pregabalin 30 mg/kg IP), Day 7, individual mice
  Individual latency to displaying withdrawal behaviour in the cold plate test: 16.8 s and 45.9 s and 49.6 s and 37.6 s and 24.3 s and 28.8 s and 18.6 s and 23.0 s and 62.9 s and 31.8 s and 21.5 s and 28.9 s
[3]; oxaliplatin 10 mg/kg IP day 0 (+vehicle, BXQ-350 20 mg/kg IP or pregabalin 30 mg/kg IP), Day 9, individual mice
  Individual latency to displaying withdrawal behaviour in the cold plate test: 12.6 s and 13.6 s and 24.8 s and 23.1 s and 31.8 s and 20.9 s and 17.4 s and 25.0 s and 10.6 s and 19.4 s and 25.8 s
[3]; [5]
  thermal (cold) sensitivity, cold plate test (in words): increased thermal (cold) sensitivity

From US20240316146A1, “METHODS OF REDUCING NEUROPATHY AND NEUROPATHIC SYMPTOMS AND TREATING CANCER” (Bexion Pharmaceuticals Inc., priority 2021, published 2024)
